Data from PubChem BioAssay AID256 (DTP/NCI, 2004).
“And” between values parts separate entries of the source, which are not always exact repeats. Equal values may be shown once. Toxic doses and inconclusive results are not listed. How the source made its calls: active means survival T/C of 150% or more; inactive means T/C below 125% in these data.

System: CD2F1 mice, L1210 leukemia ip, survival T/C
Test: NCI In Vivo Anticancer Drug Screen. Data for tumor model L1210 Leukemia (intraperitoneal) in CD2F1 (CDF1) mice
Conditions: endpoint: mean survival time, higher = longer survival
Protocol: The antitumor activity of compounds was measured in mice bearing transplantable tumors. Survival or tumor size were measured and the results are expressed as the measurement made in the treated group (T) divided by the measurement made in the vehicle treated control group (C). The tumor model used in this assay is L1210 Leukemia (intraperitoneal) in CD2F1 (CDF1) mice

[1] = dose: 100.0 mg/kg/injection, schedule: Q04DX003 (ip), vehicle: saline with Tween-80
[2] = dose: 200.0 mg/kg/injection, schedule: Q04DX003 (ip), vehicle: saline with Tween-80
[3] = dose: 400.0 mg/kg/injection, schedule: Q04DX003 (ip), vehicle: saline with Tween-80

Measured: T/C

O=C/C=C/C=O
inactive: dose: 3.13 mg/kg/injection, schedule: Q01DX001 (ip), vehicle: suspension in saline 98 % of control | dose: 6.25 mg/kg/injection, schedule: Q01DX001 (ip), vehicle: saline with Tween-80 106 % of control | dose: 6.25 mg/kg/injection, schedule: Q01DX001 (ip), vehicle: suspension in saline 104 % of control | dose: 12.5 mg/kg/injection, schedule: Q01DX001 (ip), vehicle: saline with Tween-80 122 % of control | dose: 12.5 mg/kg/injection, schedule: Q01DX001 (ip), vehicle: suspension in saline 101 % of control | dose: 25.0 mg/kg/injection, schedule: Q01DX001 (ip), vehicle: suspension in saline 101 % of control

Cc1ncc(C=O)c(C)c1O
inactive: dose: 75.0 mg/kg/injection, schedule: Q01DX001 (ip), vehicle: other 101 % of control

Cc1c2ccc3ccccc3c2c[n+]2ccccc12
inactive: dose: 1.25 mg/kg/injection, schedule: Q01DX009 (ip), vehicle: Klucel (hydroxypropylcellulose) (HPC) 87 % of control and 102 % of control | dose: 2.5 mg/kg/injection, schedule: Q01DX009 (ip), vehicle: Klucel (hydroxypropylcellulose) (HPC) 98 % of control and 102 % of control | dose: 5.0 mg/kg/injection, schedule: Q01DX009 (ip), vehicle: Klucel (hydroxypropylcellulose) (HPC) 100 % of control and 105 % of control | dose: 10.0 mg/kg/injection, schedule: Q01DX009 (ip), vehicle: Klucel (hydroxypropylcellulose) (HPC) 104 % of control and 110 % of control | dose: 20.0 mg/kg/injection, schedule: Q01DX009 (ip), vehicle: Klucel (hydroxypropylcellulose) (HPC) 105 % of control

CC[C@@]1(O)C(=O)OCc2c1cc1n(c2=O)Cc2cc3c(OC)cccc3nc2-1
inactive: dose: 0.13 mg/kg/injection, schedule: Q01DX009 (ip), vehicle: saline with Tween-80 105 % of control | dose: 0.25 mg/kg/injection, schedule: Q01DX009 (ip), vehicle: saline with Tween-80 111 % of control | dose: 1.0 mg/kg/injection, schedule: Q01DX009 (ip), vehicle: saline with Tween-80 101 % of control | dose: 1.0 mg/kg/injection, schedule: Q04DX003 (ip), vehicle: other 105 % of control | dose: 3.13 mg/kg/injection, schedule: Q01DX009 (ip), vehicle: saline with Tween-80 86 % of control | dose: 7.5 mg/kg/injection, schedule: Q04DX003 (ip), vehicle: water 90 % of control
active: dose: 1.56 mg/kg/injection, schedule: Q01DX009 (ip), vehicle: saline with Tween-80 157 % of control | dose: 2.0 mg/kg/injection, schedule: Q04DX003 (ip), vehicle: other 155 % of control | dose: 2.25 mg/kg/injection, schedule: Q01DX009 (ip), vehicle: saline 158 % of control | dose: 3.8 mg/kg/injection, schedule: Q04DX003 (ip), vehicle: water 154 % of control | dose: 4.0 mg/kg/injection, schedule: Q04DX003 (ip), vehicle: other 153 % of control | dose: 8.0 mg/kg/injection, schedule: Q04DX003 (ip), vehicle: other 164 % of control

Nc1nc(Cl)c2nnn(C3CC(O)C(CO)C3)c2n1 (centres undefined)
inactive: dose: 6.25 mg/kg/injection, schedule: Q01DX009 (ip), vehicle: Klucel (hydroxypropylcellulose) (HPC) 117 % of control | dose: 12.5 mg/kg/injection, schedule: Q01DX009 (ip), vehicle: Klucel (hydroxypropylcellulose) (HPC) 106 % of control | dose: 25.0 mg/kg/injection, schedule: Q01DX009 (ip), vehicle: Klucel (hydroxypropylcellulose) (HPC) 117 % of control

CCCCCCCCCCCCCOc1ccc2ccccc2c1
inactive: dose: 100.0 mg/kg/injection, schedule: Q01DX001 (ip), vehicle: Klucel (hydroxypropylcellulose) (HPC) 107 % of control | dose: 200.0 mg/kg/injection, schedule: Q01DX001 (ip), vehicle: Klucel (hydroxypropylcellulose) (HPC) 96 % of control | dose: 400.0 mg/kg/injection, schedule: Q01DX001 (ip), vehicle: Klucel (hydroxypropylcellulose) (HPC) 87 % of control

Cc1ccc(S(=O)(=O)OC2CCC3(C)C(CCC4C3CCC3(C)C(C(C)CCCC(C)C)CCC43)C2)cc1 (centres undefined)
inactive: [1] 92 % of control | [2] 90 % of control | [3] 89 % of control

N=Cc1c(O)n(C2CCCCC2)c(=O)n(C2CCCCC2)c1=O
inactive: dose: 100.0 mg/kg/injection, schedule: Q01DX009 (ip), vehicle: saline with Tween-80 105 % of control | [1] 95 % of control | dose: 200.0 mg/kg/injection, schedule: Q01DX009 (ip), vehicle: saline with Tween-80 100 % of control | [2] 96 % of control | dose: 400.0 mg/kg/injection, schedule: Q01DX009 (ip), vehicle: saline with Tween-80 107 % of control | [3] 96 % of control
